{
  "source": "patent US20240174690A1",
  "about": "“ANNULATED 2-AMINO-3-CYANO THIOPHENES AND DERIVATIVES FOR THE TREATMENT OF CANCER” (BOEHRINGER INGELHEIM INTERNATIONAL GMBH, priority 2021, published 2024)",
  "key": {"CYP3A4": {"target": "CYP3A4 (Homo sapiens (Human), UniProt P08684)", "sequence (P08684 whole entry)": "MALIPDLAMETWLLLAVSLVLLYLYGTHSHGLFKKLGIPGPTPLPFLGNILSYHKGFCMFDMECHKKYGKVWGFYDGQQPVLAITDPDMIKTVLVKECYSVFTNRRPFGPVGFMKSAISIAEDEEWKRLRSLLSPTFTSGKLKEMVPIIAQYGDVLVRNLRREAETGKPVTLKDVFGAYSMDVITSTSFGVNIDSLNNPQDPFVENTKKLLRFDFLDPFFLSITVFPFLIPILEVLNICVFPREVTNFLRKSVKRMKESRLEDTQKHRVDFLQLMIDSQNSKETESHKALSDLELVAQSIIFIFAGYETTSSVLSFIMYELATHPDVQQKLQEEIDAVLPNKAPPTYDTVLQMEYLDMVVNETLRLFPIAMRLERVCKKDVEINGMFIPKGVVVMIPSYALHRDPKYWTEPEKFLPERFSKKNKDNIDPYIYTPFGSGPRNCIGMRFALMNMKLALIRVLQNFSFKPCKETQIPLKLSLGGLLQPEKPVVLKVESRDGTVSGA", "assay": "Mechanism based inhibition of CYP3A4 assay (MBI 3A4)", "assay_type": "in vitro ADME", "settings": "hydroxy-midazolam formation after 30 min vs 0 min preincubation, 25 uM, human liver microsomes", "procedure,_shortened": "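Human CYP3A4 activity after 30 min vs 0 min preincubation with test compound; incubate then diluted 1:10 and midazolam added for a 15 min main incubation. Quenched with acetonitrile; hydroxy-midazolam quantified by LC/MS-MS and expressed as % of the 0 min preincubation formation.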"}, "GP2D cells": {"system": "GP2D cells", "assay": "GP2D proliferation assay (120 h) (colorectal cancer, G12D)", "assay_type": "cell-based", "procedure,_shortened": "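500 cells/well in DMEM + GlutaMAX + 10% FCS, exposed to a logarithmic compound dose series (DMSO-normalized) for 120 h. Viability read by CellTiter-Glo luminescence as percent of DMSO control, with an untreated T0 read at dosing; IC50 from four-parameter non-linear regression.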"}, "MKN1 cells": {"system": "MKN1 cells", "assay": "MKN1 CTG proliferation assay (120 h) (gastric cancer, wt amplified)", "assay_type": "cell-based", "procedure,_shortened": "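MKN1 gastric cancer cells (200–500 per well, RPMI + 10% FCS) given a logarithmic compound dose series and incubated 120 h. Viability by CellTiter-Glo luminescence as percent of DMSO controls. IC50 by four-parameter non-linear regression.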"}, "[1]": {"settings": "Homo sapiens, MKN-1, assay 3, CTG 120 h, read-out: MKN1 (assay 3) IC50"}, "[2]": {"settings": "Homo sapiens, MKN-1, assay 2, CTG 120 h, read-out: MKN1 (assay 2) IC50"}, "[3]": {"settings": "Homo sapiens, MKN-1, assay 1, CTG 120 h, read-out: MKN1 (assay 1) IC50"}},
  "note": "Like-named read-outs stand apart in the source and are kept apart here.",
  "data": [
    {"smiles": "C[C@H](Oc1cc(N2CCNC3(COC3)C2)nc(-c2onc3c2CCC[C@@]32CCCc3sc(N)c(C#N)c32)n1)[C@@H]1CCCN1C", "note": "[I-4]", "values": [
      {"measurement": "MBI 3A4", "setting": "CYP3A4", "result": 64, "unit": "%"},
      {"measurement": "IC50", "setting": "GP2D cells", "result": 1, "unit": "nM"},
      {"measurement": "IC50", "setting": "MKN1 cells; [1]", "result": 75, "unit": "nM"}
    ]},
    {"smiles": "C[C@H](Oc1cc(-c2ccn(C)n2)nc(-c2onc3c2CCC[C@@]32CCCc3sc(N)c(C#N)c32)n1)[C@@H]1CCCN1C", "note": "[I-21]", "values": [
      {"measurement": "MBI 3A4", "setting": "CYP3A4", "result": 40, "unit": "%"},
      {"measurement": "IC50", "setting": "GP2D cells", "result": 546, "unit": "nM"},
      {"measurement": "IC50", "setting": "MKN1 cells; assay 3, CTG 120 h, read-out: MKN1 (assay 3) IC50", "result": 149, "unit": "nM"}
    ]},
    {"smiles": "C[C@H](Oc1cc(-c2ccn(C3COC3)n2)nc(-c2onc3c2CCC[C@@]32CCCc3sc(N)c(C#N)c32)n1)[C@@H]1CCCN1C", "note": "[I-34]", "values": [
      {"measurement": "MBI 3A4", "setting": "CYP3A4", "result": 67, "unit": "%"},
      {"measurement": "IC50", "setting": "GP2D cells", "result": 872, "unit": "nM"},
      {"measurement": "IC50", "setting": "MKN1 cells; [1]", "result": 693, "unit": "nM"}
    ]},
    {"smiles": "C[C@H](Oc1cc(N2CCN(C)C3(CC3)C2)nc(-c2onc3c2CCC[C@@]32CCCc3sc(N)c(C#N)c32)n1)[C@@H]1C[C@@H](F)CN1C", "note": "[I-39]", "values": [
      {"measurement": "MBI 3A4", "setting": "CYP3A4", "result": 37, "unit": "%"},
      {"measurement": "IC50", "setting": "GP2D cells", "result": 17, "unit": "nM"},
      {"measurement": "IC50", "setting": "MKN1 cells; [2]", "result": 621, "unit": "nM"}
    ]},
    {"smiles": "CO[C@H]1CCN(C)[C@@H]1[C@H](C)Oc1cc(N2CCNC3(CC3)C2)nc(-c2onc3c2CCC[C@@]32CCCc3sc(N)c(C#N)c32)n1", "note": "[I-49]", "values": [
      {"measurement": "IC50", "setting": "GP2D cells", "result": 1, "unit": "nM"},
      {"measurement": "IC50", "setting": "MKN1 cells; [2]", "result": 335, "unit": "nM"},
      {"measurement": "IC50", "setting": "MKN1 cells; [1]", "result": 152, "unit": "nM"}
    ]},
    {"smiles": "CO[C@@H]1C[C@@H]([C@H](C)Oc2cc(N3CCN(C)C4(CC4)C3)nc(-c3onc4c3CCC[C@@]43CCCc4sc(N)c(C#N)c43)n2)N(C)C1", "note": "[I-50]", "values": [
      {"measurement": "IC50", "setting": "GP2D cells", "result": 10, "unit": "nM"},
      {"measurement": "IC50", "setting": "MKN1 cells; [2]", "result": 785, "unit": "nM"},
      {"measurement": "IC50", "setting": "MKN1 cells; [1]", "result": 627, "unit": "nM"}
    ]},
    {"smiles": "C[C@H](Oc1cc(N2C[C@@H](N(C)C)[C@@H](O)C2)nc(-c2noc3c2CCC[C@@]32CCCc3sc(N)c(C#N)c32)n1)[C@@H]1CCCN1C", "note": "[II-10]", "values": [
      {"measurement": "MBI 3A4", "setting": "CYP3A4", "result": 80, "unit": "%"},
      {"measurement": "IC50", "setting": "GP2D cells", "result": 11, "unit": "nM"},
      {"measurement": "IC50", "setting": "MKN1 cells; [1]", "result": 1260, "unit": "nM"}
    ]},
    {"smiles": "C[C@H](Oc1cc(N2CC[C@H](N3CCCCC3)C2)nc(-c2noc3c2CCC[C@@]32CCCc3sc(N)c(C#N)c32)n1)[C@@H]1CCCN1C", "note": "[II-12]", "values": [
      {"measurement": "MBI 3A4", "setting": "CYP3A4", "result": 78, "unit": "%"},
      {"measurement": "IC50", "setting": "GP2D cells", "result": 9, "unit": "nM"},
      {"measurement": "IC50", "setting": "MKN1 cells; [1]", "result": 460, "unit": "nM"}
    ]},
    {"smiles": "C[C@H](Oc1cc(N2C[C@H](C)NC3(CC3)C2)nc(-c2noc3c2CCC[C@@]32CCCc3sc(N)c(C#N)c32)n1)[C@@H]1C[C@@H](F)CN1C", "note": "[II-18]", "values": [
      {"measurement": "IC50", "setting": "GP2D cells", "result": 2, "unit": "nM"},
      {"measurement": "IC50", "setting": "MKN1 cells; [2]", "result": 279, "unit": "nM"}
    ]},
    {"smiles": "C[C@H](Oc1cc(-n2ccc(C(=O)N3CCCC3)n2)nc(-c2noc3c2CCC[C@@]32CCCc3sc(N)c(C#N)c32)n1)[C@@H]1CCCN1C", "note": "[II-19]", "values": [
      {"measurement": "IC50", "setting": "GP2D cells", "result": 136, "unit": "nM"},
      {"measurement": "IC50", "setting": "MKN1 cells; [1]", "result": 47, "unit": "nM"}
    ]},
    {"smiles": "CNC(=O)c1ccn(-c2cc(O[C@@H](C)[C@@H]3CCCN3C)nc(-c3noc4c3CCC[C@@]43CCCc4sc(N)c(C#N)c43)n2)n1", "note": "[II-20]", "values": [
      {"measurement": "MBI 3A4", "setting": "CYP3A4", "result": 63, "unit": "%"},
      {"measurement": "IC50", "setting": "GP2D cells", "result": 57, "unit": "nM"},
      {"measurement": "IC50", "setting": "MKN1 cells; [3]", "result": 24, "unit": "nM"}
    ]},
    {"smiles": "C[C@H](Oc1cc(-n2ccc(C(N)=O)n2)nc(-c2noc3c2CCC[C@@]32CCCc3sc(N)c(C#N)c32)n1)[C@@H]1CCCN1C", "note": "[II-21]", "values": [
      {"measurement": "MBI 3A4", "setting": "CYP3A4", "result": 77, "unit": "%"},
      {"measurement": "IC50", "setting": "GP2D cells", "result": 57, "unit": "nM"},
      {"measurement": "IC50", "setting": "MKN1 cells; [3]", "result": 20, "unit": "nM"},
      {"measurement": "IC50", "setting": "MKN1 cells; [2]", "result": 27, "unit": "nM"},
      {"measurement": "IC50", "setting": "MKN1 cells; [1]", "result": 24, "unit": "nM"}
    ]},
    {"smiles": "C[C@H](Oc1cc(-c2ccn(C)n2)nc(-c2noc3c2CCC[C@@]32CCCc3sc(N)c(C#N)c32)n1)[C@@H]1C[C@@H](F)CN1C", "note": "[II-27]", "values": [
      {"measurement": "MBI 3A4", "setting": "CYP3A4", "result": 71, "unit": "%"},
      {"measurement": "IC50", "setting": "GP2D cells", "result": 408, "unit": "nM"},
      {"measurement": "IC50", "setting": "MKN1 cells; [1]", "result": 116, "unit": "nM"}
    ]},
    {"smiles": "C[C@H](Oc1cc(N2CCNC3(COC3)C2)nc(-c2noc3c2CCC[C@@]32CCCc3sc(N)c(C#N)c32)n1)[C@@H]1CCCN1C", "note": "[II-31]", "values": [
      {"measurement": "MBI 3A4", "setting": "CYP3A4", "result": 65, "unit": "%"},
      {"measurement": "IC50", "setting": "GP2D cells", "result": 1, "unit": "nM"},
      {"measurement": "IC50", "setting": "MKN1 cells; [1]", "result": 30, "unit": "nM"}
    ]},
    {"smiles": "C[C@H](Oc1cc(N2CC3CCC(C2)N3)nc(-c2noc3c2CCC[C@@]32CCCc3sc(N)c(C#N)c32)n1)[C@@H]1CCCN1C", "note": "[II-34]", "values": [
      {"measurement": "MBI 3A4", "setting": "CYP3A4", "result": 83, "unit": "%"},
      {"measurement": "IC50", "setting": "GP2D cells", "result": 49, "unit": "nM"},
      {"measurement": "IC50", "setting": "MKN1 cells; [1]", "result": 453, "unit": "nM"}
    ]}
  ]
}
